Results: ChEMBL document CHEMBL3885861, “Open TG-GATES”

Organism: Rattus norvegicus
Assay: Open TG-GATES - Regimen: Daily Repeat
Assay type: toxicity, organism-based, Sprague-Dawley
Design: regimen Daily Repeat, gender Male, age 6 weeks
Conditions: in vivo, po, route gavage; for Bas / Eos / Hb / Ht / Lym / MCH / MCHC / MCV / Mono / Neu / Plat / RBC / Ret / WBC: tissue Blood; for KIDNEY_L / KIDNEY_R / KIDNEY_TOTAL: tissue Kidney; for LIVER: tissue Liver; for A/G / ALP / ALT / AST / BUN / CRE / Ca / Cl / DBIL / GLC / IP / K / LDH / Na / PL / RALB / TBIL / TC / TG / TP / gamma-GTP: tissue Plasma
[1] = 0 mg/kg, 72 h, dose level Control, time 3 day
[2] = 0 mg/kg, […], dose level Control, time 7 day
[3] = 0 mg/kg, […], dose level Control, time 14 day
[4] = 0 mg/kg, […], dose level Control, time 28 day
[5] = 300 mg/kg, 72 h, dose level Low, time 3 day
[6] = 300 mg/kg, […], dose level Low, time 7 day
[7] = 300 mg/kg, […], dose level Low, time 14 day
[8] = 300 mg/kg, […], dose level Low, time 28 day

## CC(N)=O [ACETAMIDE]
[1]
  TERMINAL_BW: 236.7 g
  Bas: 0%
  Eos: 1%
  Hb: 13.1 g/dL
  Ht: 40.5%
  Lym: 71.4%
  MCH: 20 pg
  MCHC: 32.4%
  MCV: 61.6 fL
  Mono: 3.6%
  Neu: 23%
  Plat: 126.3 x10_4/uL
  RBC: 658.2 x10_4/ul
  Ret: 7.1%
  WBC: 126.7 x10_2/uL
  KIDNEY_L: 1 g
  KIDNEY_R: 1 g
  KIDNEY_TOTAL: 2 g
  LIVER: 11.1 g
  A/G: 1
  ALP: 1741.8 IU/L
  ALT: 39.8 IU/L
  AST: 71.6 IU/L
  BUN: 15.2 mg/dL
  CRE: 0.1 mg/dL
  Ca: 10.7 mg/dL
  Cl: 105.6 meq/L
  DBIL: 0.004 mg/dL
  GLC: 196 mg/dL
  IP: 6.7 mg/dL
  K: 4.4 meq/L
  LDH: 180.4 IU/L
  Na: 140.9 meq/L
  PL: 162.6 mg/dL
  RALB: 2.8 g/dL
  TBIL: 0.002 mg/dL
  TC: 85.2 mg/dL
  TG: 108.8 mg/dL
  TP: 5.6 g/dL
  gamma-GTP: 0.8 IU/L
[2]
  TERMINAL_BW: 276.9 g
  Bas: 0%
  Eos: 1%
  Hb: 12.7 g/dL
  Ht: 38.9%
  Lym: 75.2%
  MCH: 19.9 pg
  MCHC: 32.7%
  MCV: 60.8 fL
  Mono: 3.2%
  Neu: 19.8%
  Plat: 131.8 x10_4/uL
  RBC: 640.2 x10_4/ul
  Ret: 6.7%
  WBC: 130.3 x10_2/uL
  KIDNEY_L: 1.1 g
  KIDNEY_R: 1.2 g
  KIDNEY_TOTAL: 2.3 g
  LIVER: 12.8 g
  A/G: 0.9
  ALP: 1570 IU/L
  ALT: 38.2 IU/L
  AST: 64.2 IU/L
  BUN: 16.1 mg/dL
  CRE: 0.2 mg/dL
  Ca: 10.5 mg/dL
  Cl: 103.4 meq/L
  DBIL: 0 mg/dL
  GLC: 195.2 mg/dL
  IP: 6.6 mg/dL
  K: 4.7 meq/L
  LDH: 164.6 IU/L
  Na: 140.6 meq/L
  PL: 148.6 mg/dL
  RALB: 2.8 g/dL
  TBIL: 0 mg/dL
  TC: 72.6 mg/dL
  TG: 135.5 mg/dL
  TP: 5.7 g/dL
  gamma-GTP: 0.7 IU/L
[3]
  TERMINAL_BW: 335.4 g
  Bas: 0%
  Eos: 1%
  Hb: 13.4 g/dL
  Ht: 40.3%
  Lym: 79.8%
  MCH: 19.6 pg
  MCHC: 33.2%
  MCV: 58.9 fL
  Mono: 3%
  Neu: 15.2%
  Plat: 119.7 x10_4/uL
  RBC: 685.6 x10_4/ul
  Ret: 5.2%
  WBC: 124.3 x10_2/uL
  KIDNEY_L: 1.3 g
  KIDNEY_R: 1.3 g
  KIDNEY_TOTAL: 2.6 g
  LIVER: 14.7 g
  A/G: 0.9
  ALP: 1394.4 IU/L
  ALT: 33.2 IU/L
  AST: 64.6 IU/L
  BUN: 17.9 mg/dL
  CRE: 0.2 mg/dL
  Ca: 10.4 mg/dL
  Cl: 103.5 meq/L
  DBIL: 0 mg/dL
  GLC: 196.6 mg/dL
  IP: 6.6 mg/dL
  K: 4.2 meq/L
  LDH: 170.6 IU/L
  Na: 141.6 meq/L
  PL: 156 mg/dL
  RALB: 2.7 g/dL
  TBIL: 0 mg/dL
  TC: 72 mg/dL
  TG: 191.9 mg/dL
  TP: 5.8 g/dL
  gamma-GTP: 0.8 IU/L
[4]
  TERMINAL_BW: 415.6 g
  Bas: 0%
  Eos: 1%
  Hb: 13.5 g/dL
  Ht: 41.1%
  Lym: 82.2%
  MCH: 18.5 pg
  MCHC: 32.8%
  MCV: 56.3 fL
  Mono: 2.2%
  Neu: 14.2%
  Plat: 99.3 x10_4/uL
  RBC: 729.2 x10_4/ul
  Ret: 4.1%
  WBC: 118.1 x10_2/uL
  KIDNEY_L: 1.4 g
  KIDNEY_R: 1.4 g
  KIDNEY_TOTAL: 2.8 g
  LIVER: 16 g
  A/G: 0.8
  ALP: 983.4 IU/L
  ALT: 34.2 IU/L
  AST: 64.6 IU/L
  BUN: 16.3 mg/dL
  CRE: 0.2 mg/dL
  Ca: 10.3 mg/dL
  Cl: 103.9 meq/L
  DBIL: 0.004 mg/dL
  GLC: 204.8 mg/dL
  IP: 6.3 mg/dL
  K: 4.1 meq/L
  LDH: 179.6 IU/L
  Na: 142.3 meq/L
  PL: 133.2 mg/dL
  RALB: 2.7 g/dL
  TBIL: 0.002 mg/dL
  TC: 60.2 mg/dL
  TG: 133.7 mg/dL
  TP: 6 g/dL
  gamma-GTP: 0.9 IU/L
[5]
  TERMINAL_BW: 239.9 g
  Bas: 0%
  Eos: 0.8%
  Hb: 12.4 g/dL
  Ht: 38.3%
  Lym: 75.8%
  MCH: 20.5 pg
  MCHC: 32.5%
  MCV: 63 fL
  Mono: 3.4%
  Neu: 19.4%
  Plat: 135.2 x10_4/uL
  RBC: 608.2 x10_4/ul
  Ret: 8.2%
  WBC: 104.5 x10_2/uL
  KIDNEY_L: 1 g
  KIDNEY_R: 1 g
  KIDNEY_TOTAL: 2.1 g
  LIVER: 11.3 g
  A/G: 1
  ALP: 2008.8 IU/L
  ALT: 36.4 IU/L
  AST: 65.4 IU/L
  BUN: 17.6 mg/dL
  CRE: 0.1 mg/dL
  Ca: 10.8 mg/dL
  Cl: 103.4 meq/L
  DBIL: 0.002 mg/dL
  GLC: 184.6 mg/dL
  IP: 6.6 mg/dL
  K: 4.5 meq/L
  LDH: 138.4 IU/L
  Na: 139.5 meq/L
  PL: 157.2 mg/dL
  RALB: 2.8 g/dL
  TBIL: 0.006 mg/dL
  TC: 80.4 mg/dL
  TG: 137.5 mg/dL
  TP: 5.5 g/dL
  gamma-GTP: 0.8 IU/L
[6]
  TERMINAL_BW: 271.7 g
  Bas: 0%
  Eos: 0.8%
  Hb: 12.5 g/dL
  Ht: 38.3%
  Lym: 76.4%
  MCH: 19.8 pg
  MCHC: 32.7%
  MCV: 60.6 fL
  Mono: 3.4%
  Neu: 18.4%
  Plat: 115.7 x10_4/uL
  RBC: 631.6 x10_4/ul
  Ret: 6.4%
  WBC: 120.4 x10_2/uL
  KIDNEY_L: 1.1 g
  KIDNEY_R: 1.1 g
  KIDNEY_TOTAL: 2.2 g
  LIVER: 12.8 g
  A/G: 0.9
  ALP: 1504 IU/L
  ALT: 39.4 IU/L
  AST: 73.4 IU/L
  BUN: 19.4 mg/dL
  CRE: 0.2 mg/dL
  Ca: 10.5 mg/dL
  Cl: 104.1 meq/L
  DBIL: 0 mg/dL
  GLC: 187.4 mg/dL
  IP: 6.3 mg/dL
  K: 4.7 meq/L
  LDH: 205.8 IU/L
  Na: 141.3 meq/L
  PL: 149.6 mg/dL
  RALB: 2.8 g/dL
  TBIL: 0 mg/dL
  TC: 72 mg/dL
  TG: 141.8 mg/dL
  TP: 5.8 g/dL
  gamma-GTP: 0.5 IU/L
[7]
  TERMINAL_BW: 327.7 g
  Bas: 0%
  Eos: 1%
  Hb: 13.2 g/dL
  Ht: 39.9%
  Lym: 76.8%
  MCH: 19.6 pg
  MCHC: 33.2%
  MCV: 59.2 fL
  Mono: 2.8%
  Neu: 19%
  Plat: 105.9 x10_4/uL
  RBC: 674.2 x10_4/ul
  Ret: 4.8%
  WBC: 126.4 x10_2/uL
  KIDNEY_L: 1.3 g
  KIDNEY_R: 1.3 g
  KIDNEY_TOTAL: 2.6 g
  LIVER: 14.1 g
  A/G: 0.9
  ALP: 1341.2 IU/L
  ALT: 34.4 IU/L
  AST: 68.6 IU/L
  BUN: 17.7 mg/dL
  CRE: 0.2 mg/dL
  Ca: 10.4 mg/dL
  Cl: 104.9 meq/L
  DBIL: 0 mg/dL
  GLC: 197.4 mg/dL
  IP: 6.3 mg/dL
  K: 4.4 meq/L
  LDH: 244 IU/L
  Na: 141.1 meq/L
  PL: 147.4 mg/dL
  RALB: 2.8 g/dL
  TBIL: 0.002 mg/dL
  TC: 71.2 mg/dL
  TG: 132 mg/dL
  TP: 5.8 g/dL
  gamma-GTP: 0.7 IU/L
[8]
  TERMINAL_BW: 432.9 g
  Bas: 0%
  Eos: 1%
  Hb: 14.1 g/dL
  Ht: 42.1%
  Lym: 77.8%
  MCH: 19.1 pg
  MCHC: 33.5%
  MCV: 57.1 fL
  Mono: 2.4%
  Neu: 17.8%
  Plat: 111 x10_4/uL
  RBC: 737.8 x10_4/ul
  Ret: 3.2%
  WBC: 165 x10_2/uL
  KIDNEY_L: 1.5 g
  KIDNEY_R: 1.5 g
  KIDNEY_TOTAL: 3 g
  LIVER: 17.3 g
  A/G: 0.9
  ALP: 1160.4 IU/L
  ALT: 41.2 IU/L
  AST: 75.8 IU/L
  BUN: 20.1 mg/dL
  CRE: 0.2 mg/dL
  Ca: 10.5 mg/dL
  Cl: 104.1 meq/L
  DBIL: 0.004 mg/dL
  GLC: 211.2 mg/dL
  IP: 6.3 mg/dL
  K: 4.3 meq/L
  LDH: 256 IU/L
  Na: 141.8 meq/L
  PL: 158.6 mg/dL
  RALB: 2.8 g/dL
  TBIL: 0 mg/dL
  TC: 77 mg/dL
  TG: 175.1 mg/dL
  TP: 6 g/dL
  gamma-GTP: 0.9 IU/L
